# Test results from US20060252807A1, “Novel ortho-terphenyl inhibitors of p38 kinase and methods of treating inflammatory disorders” (Kalypsys, Inc., priority 2005, published 2006).
# Molecular target: T1, active p38 alpha enzyme (Upstate Biotechnology) (Homo sapiens, UniProt Q16539)
# T1 construct: purchased Upstate Biotechnology
# Test: p38α biochemical assay (ATP turnover, luminescent detection, Cambrex PKlight)
# Conditions: p38α kinase; Table 1 Biological Activity
# How it was run: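 In this kinase reaction, p38α used MapkapK2 as phosphorylation substrate at low ATP (1.4 uM final) over 2 hours at 30C, and activity was followed as ATP turnover by luminescence.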
# T1 sequence (Q16539 whole entry): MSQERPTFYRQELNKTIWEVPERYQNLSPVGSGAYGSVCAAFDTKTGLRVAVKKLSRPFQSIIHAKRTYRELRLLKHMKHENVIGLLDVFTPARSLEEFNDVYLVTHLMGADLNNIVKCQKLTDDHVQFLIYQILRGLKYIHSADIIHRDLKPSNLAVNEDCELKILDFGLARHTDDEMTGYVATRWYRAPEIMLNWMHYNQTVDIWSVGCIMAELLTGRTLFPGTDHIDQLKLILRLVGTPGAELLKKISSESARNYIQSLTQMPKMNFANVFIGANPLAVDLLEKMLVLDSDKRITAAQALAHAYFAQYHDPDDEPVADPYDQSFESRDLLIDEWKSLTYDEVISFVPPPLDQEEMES
row,IC50 [nM],SMILES
1,> 1000,CCC(CO)NC(=O)c1csc(-c2c(-c3ccc(F)cc3)n[nH]c2C2CCNCC2)n1 (stereo not shown) [Example 2052]
2,> 1000,O=C(NCCCCO)c1csc(-c2c(-c3ccc(F)cc3)n[nH]c2C2CCNCC2)n1 [Example 2053]
3,> 1000,O=C(NCc1ccco1)c1csc(-c2c(-c3ccc(F)cc3)n[nH]c2C2CCNCC2)n1 [Example 2054]
4,> 1000,O=C(NC1CCCCC1)c1csc(-c2c(-c3ccc(F)cc3)n[nH]c2C2CCNCC2)n1 [Example 2055]
5,> 1000,O=C(NCC1CCCO1)c1csc(-c2c(-c3ccc(F)cc3)n[nH]c2C2CCNCC2)n1 (stereo not shown) [Example 2056]
6,> 1000,CC(C)(C)CCNC(=O)c1csc(-c2c(-c3ccc(F)cc3)n[nH]c2C2CCNCC2)n1 [Example 2057]
7,> 1000,CC(C)CC(C)NC(=O)c1csc(-c2c(-c3ccc(F)cc3)n[nH]c2C2CCNCC2)n1 (stereo not shown) [Example 2058]
8,> 1000,O=C(NC1CONC1=O)c1csc(-c2c(-c3ccc(F)cc3)n[nH]c2C2CCNCC2)n1 (stereo not shown) [Example 2059]
9,> 1000,O=C(NN1CCOCC1)c1csc(-c2c(-c3ccc(F)cc3)n[nH]c2C2CCNCC2)n1 [Example 2060]
10,≤ 1000,CC(C)C(CO)NC(=O)c1csc(-c2c(-c3ccc(F)cc3)n[nH]c2C2CCNCC2)n1 (stereo not shown) [Example 2061]
11,> 1000,O=C(NCc1ccccc1)c1csc(-c2c(-c3ccc(F)cc3)n[nH]c2C2CCNCC2)n1 [Example 2062]
12,> 1000,O=C(NCc1ccccn1)c1csc(-c2c(-c3ccc(F)cc3)n[nH]c2C2CCNCC2)n1 [Example 2063]
13,≤ 1000,O=C(NCc1ccncc1)c1csc(-c2c(-c3ccc(F)cc3)n[nH]c2C2CCNCC2)n1 [Example 2064]
14,> 1000,O=C(NCc1cccs1)c1csc(-c2c(-c3ccc(F)cc3)n[nH]c2C2CCNCC2)n1 [Example 2065]
15,> 1000,CC1CCC(NC(=O)c2csc(-c3c(-c4ccc(F)cc4)n[nH]c3C3CCNCC3)n2)CC1 (stereo not shown) [Example 2066]
16,> 1000,O=C(NCC1CCCCC1)c1csc(-c2c(-c3ccc(F)cc3)n[nH]c2C2CCNCC2)n1 [Example 2067]
17,> 1000,O=C(NC1CCCCCC1)c1csc(-c2c(-c3ccc(F)cc3)n[nH]c2C2CCNCC2)n1 [Example 2068]
18,> 1000,CC1CCCCC1NC(=O)c1csc(-c2c(-c3ccc(F)cc3)n[nH]c2C2CCNCC2)n1 (stereo not shown) [Example 2069]
19,> 1000,O=C(NCCN1CCCC1)c1csc(-c2c(-c3ccc(F)cc3)n[nH]c2C2CCNCC2)n1 [Example 2070]
20,> 1000,CN1CCN(NC(=O)c2csc(-c3c(-c4ccc(F)cc4)n[nH]c3C3CCNCC3)n2)CC1 [Example 2071]
21,> 1000,CCN(CC)CCNC(=O)c1csc(-c2c(-c3ccc(F)cc3)n[nH]c2C2CCNCC2)n1 [Example 2072]
22,> 1000,Cc1cccc(CNC(=O)c2csc(-c3c(-c4ccc(F)cc4)n[nH]c3C3CCNCC3)n2)c1 [Example 2073]
23,> 1000,C[C@H](NC(=O)c1csc(-c2c(-c3ccc(F)cc3)n[nH]c2C2CCNCC2)n1)c1ccccc1 [Example 2074]
24,> 1000,C[C@@H](NC(=O)c1csc(-c2c(-c3ccc(F)cc3)n[nH]c2C2CCNCC2)n1)c1ccccc1 [Example 2075]
25,> 1000,O=C(NCCc1ccccc1)c1csc(-c2c(-c3ccc(F)cc3)n[nH]c2C2CCNCC2)n1 [Example 2076]

row,IC50 [nM],SMILES
1,> 1000,Cc1ccccc1CNC(=O)c1csc(-c2c(-c3ccc(F)cc3)n[nH]c2C2CCNCC2)n1 [Example 2077]
2,> 1000,Cc1ccc(CNC(=O)c2csc(-c3c(-c4ccc(F)cc4)n[nH]c3C3CCNCC3)n2)cc1 [Example 2078]
3,> 1000,Cc1cnc(CNC(=O)c2csc(-c3c(-c4ccc(F)cc4)n[nH]c3C3CCNCC3)n2)cn1 [Example 2079]
4,> 1000,O=C(NCc1cccc(F)c1)c1csc(-c2c(-c3ccc(F)cc3)n[nH]c2C2CCNCC2)n1 [Example 2080]
5,> 1000,O=C(NCc1ccc(F)cc1)c1csc(-c2c(-c3ccc(F)cc3)n[nH]c2C2CCNCC2)n1 [Example 2081]
6,≤ 1000,O=C(NCc1ccccc1F)c1csc(-c2c(-c3ccc(F)cc3)n[nH]c2C2CCNCC2)n1 [Example 2082]
7,> 1000,O=C(NCCCn1ccnc1)c1csc(-c2c(-c3ccc(F)cc3)n[nH]c2C2CCNCC2)n1 [Example 2083]
8,> 1000,CN1CCCC1CCNC(=O)c1csc(-c2c(-c3ccc(F)cc3)n[nH]c2C2CCNCC2)n1 (stereo not shown) [Example 2084]
9,> 1000,O=C(NCCN1CCCCC1)c1csc(-c2c(-c3ccc(F)cc3)n[nH]c2C2CCNCC2)n1 [Example 2085]
10,> 1000,CC(C)CCCC(C)NC(=O)c1csc(-c2c(-c3ccc(F)cc3)n[nH]c2C2CCNCC2)n1 (stereo not shown) [Example 2086]
11,> 1000,O=C(NCCN1CCOCC1)c1csc(-c2c(-c3ccc(F)cc3)n[nH]c2C2CCNCC2)n1 [Example 2087]
12,> 1000,CCOC(=O)CC(C)NC(=O)c1csc(-c2c(-c3ccc(F)cc3)n[nH]c2C2CCNCC2)n1 (stereo not shown) [Example 2088]
13,> 1000,O=C(NC1CCc2ccccc21)c1csc(-c2c(-c3ccc(F)cc3)n[nH]c2C2CCNCC2)n1 (stereo not shown) [Example 2089]
14,> 1000,Cc1ccc(CCNC(=O)c2csc(-c3c(-c4ccc(F)cc4)n[nH]c3C3CCNCC3)n2)cc1 [Example 2090]
15,> 1000,Cc1ccc(C)c(CNC(=O)c2csc(-c3c(-c4ccc(F)cc4)n[nH]c3C3CCNCC3)n2)c1 [Example 2091]
16,> 1000,Cc1ccc([C@H](C)NC(=O)c2csc(-c3c(-c4ccc(F)cc4)n[nH]c3C3CCNCC3)n2)cc1 [Example 2092]
17,> 1000,Cc1ccc([C@@H](C)NC(=O)c2csc(-c3c(-c4ccc(F)cc4)n[nH]c3C3CCNCC3)n2)cc1 [Example 2093]
18,> 1000,CC(CNC(=O)c1csc(-c2c(-c3ccc(F)cc3)n[nH]c2C2CCNCC2)n1)c1ccccc1 (stereo not shown) [Example 2094]
19,> 1000,CC(CNC(=O)c1csc(-c2c(-c3ccc(F)cc3)n[nH]c2C2CCNCC2)n1)c1ccccc1 (stereo not shown) [Example 2095]
20,> 1000,O=C(NCCCc1ccccc1)c1csc(-c2c(-c3ccc(F)cc3)n[nH]c2C2CCNCC2)n1 [Example 2096]
21,> 1000,Cc1ccc(CNC(=O)c2csc(-c3c(-c4ccc(F)cc4)n[nH]c3C3CCNCC3)n2)cc1C [Example 2097]
22,> 1000,CC(Cc1ccncc1)NC(=O)c1csc(-c2c(-c3ccc(F)cc3)n[nH]c2C2CCNCC2)n1 (stereo not shown) [Example 2098]
23,> 1000,O=C(NCCc1ccc(O)cc1)c1csc(-c2c(-c3ccc(F)cc3)n[nH]c2C2CCNCC2)n1 [Example 2099]
24,> 1000,O=C(NCCOc1ccccc1)c1csc(-c2c(-c3ccc(F)cc3)n[nH]c2C2CCNCC2)n1 [Example 2100]
25,> 1000,COc1ccccc1CNC(=O)c1csc(-c2c(-c3ccc(F)cc3)n[nH]c2C2CCNCC2)n1 [Example 2101]

row,IC50 [nM],SMILES
1,≤ 1000,COc1ccc(CNC(=O)c2csc(-c3c(-c4ccc(F)cc4)n[nH]c3C3CCNCC3)n2)cc1 [Example 2102]
2,> 1000,COc1cccc(CNC(=O)c2csc(-c3c(-c4ccc(F)cc4)n[nH]c3C3CCNCC3)n2)c1 [Example 2103]
3,> 1000,O=C(NCCc1ccc(F)cc1)c1csc(-c2c(-c3ccc(F)cc3)n[nH]c2C2CCNCC2)n1 [Example 2104]
4,> 1000,O=C(NCCc1ccccc1F)c1csc(-c2c(-c3ccc(F)cc3)n[nH]c2C2CCNCC2)n1 [Example 2105]
5,> 1000,O=C(NCCc1cccc(F)c1)c1csc(-c2c(-c3ccc(F)cc3)n[nH]c2C2CCNCC2)n1 [Example 2106]
6,> 1000,O=C(NCc1cccc(Cl)c1)c1csc(-c2c(-c3ccc(F)cc3)n[nH]c2C2CCNCC2)n1 [Example 2107]
7,> 1000,O=C(NCc1ccccc1Cl)c1csc(-c2c(-c3ccc(F)cc3)n[nH]c2C2CCNCC2)n1 [Example 2108]
8,> 1000,O=C(NCc1ccc(Cl)cc1)c1csc(-c2c(-c3ccc(F)cc3)n[nH]c2C2CCNCC2)n1 [Example 2109]
9,> 1000,O=C(NCCCN1CCCC1=O)c1csc(-c2c(-c3ccc(F)cc3)n[nH]c2C2CCNCC2)n1 [Example 2110]
10,> 1000,O=C(NCc1ccc(F)cc1F)c1csc(-c2c(-c3ccc(F)cc3)n[nH]c2C2CCNCC2)n1 [Example 2111]
11,> 1000,O=C(NCc1ccc(F)c(F)c1)c1csc(-c2c(-c3ccc(F)cc3)n[nH]c2C2CCNCC2)n1 [Example 2112]
12,> 1000,O=C(NCc1cc(F)cc(F)c1)c1csc(-c2c(-c3ccc(F)cc3)n[nH]c2C2CCNCC2)n1 [Example 2113]
13,> 1000,O=C(NCCCN1CCOCC1)c1csc(-c2c(-c3ccc(F)cc3)n[nH]c2C2CCNCC2)n1 [Example 2114]
14,> 1000,CC(C)N(CCNC(=O)c1csc(-c2c(-c3ccc(F)cc3)n[nH]c2C2CCNCC2)n1)C(C)C [Example 2115]
15,> 1000,O=C(NC1CCCc2ccccc21)c1csc(-c2c(-c3ccc(F)cc3)n[nH]c2C2CCNCC2)n1 (stereo not shown) [Example 2116]
16,> 1000,CC(CCc1ccccc1)NC(=O)c1csc(-c2c(-c3ccc(F)cc3)n[nH]c2C2CCNCC2)n1 (stereo not shown) [Example 2117]
17,> 1000,CC(C)c1ccc(CNC(=O)c2csc(-c3c(-c4ccc(F)cc4)n[nH]c3C3CCNCC3)n2)cc1 [Example 2118]
18,> 1000,O=C(NCc1ccc2c(c1)OCO2)c1csc(-c2c(-c3ccc(F)cc3)n[nH]c2C2CCNCC2)n1 [Example 2119]
19,> 1000,COc1cccc(CCNC(=O)c2csc(-c3c(-c4ccc(F)cc4)n[nH]c3C3CCNCC3)n2)c1 [Example 2120]
20,> 1000,O=C(N[C@H](CO)Cc1ccccc1)c1csc(-c2c(-c3ccc(F)cc3)n[nH]c2C2CCNCC2)n1 [Example 2121]
21,> 1000,COc1ccc(CCNC(=O)c2csc(-c3c(-c4ccc(F)cc4)n[nH]c3C3CCNCC3)n2)cc1 [Example 2122]
22,> 1000,COc1ccccc1CCNC(=O)c1csc(-c2c(-c3ccc(F)cc3)n[nH]c2C2CCNCC2)n1 [Example 2123]
23,> 1000,CCOc1ccccc1CNC(=O)c1csc(-c2c(-c3ccc(F)cc3)n[nH]c2C2CCNCC2)n1 [Example 2124]
